From PubChem BioAssay (NCI)
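Exposure lasted 48 hours, with cells grown in 96-well plates and compounds tested at five concentrations. TGI is the concentration that stops growth completely.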

Legend:
Experiment in all cases: NCI-60 cell line screen, 48 h
RXF 393 renal = system: RXF 393 renal
RXF-631 renal = system: RXF-631 renal
SF-268 CNS = system: SF-268 CNS
LOX IMVI melanoma = system: LOX IMVI melanoma
UO-31 renal = system: UO-31 renal
UACC-257 melanoma = system: UACC-257 melanoma
U251 CNS = system: U251 CNS
K-562 leukemia = system: K-562 leukemia
NCI-H226 lung = system: NCI-H226 lung
COLO 205 colon = system: COLO 205 colon
IGROV1 ovarian = system: IGROV1 ovarian
SW-620 colon = system: SW-620 colon
786-0 renal = system: 786-0 renal
SK-OV-3 ovarian = system: SK-OV-3 ovarian
SK-MEL-5 melanoma = system: SK-MEL-5 melanoma
MOLT-4 leukemia = system: MOLT-4 leukemia
SF-295 CNS = system: SF-295 CNS
HOP-92 NSCLC = system: HOP-92 NSCLC
M14 melanoma = system: M14 melanoma
RPMI-8226 leukemia = system: RPMI-8226 leukemia
SNB-75 CNS = system: SNB-75 CNS
NCI-H522 lung = system: NCI-H522 lung
NCI-H460 lung = system: NCI-H460 lung
HT29 colon = system: HT29 colon
OVCAR-8 ovarian = system: OVCAR-8 ovarian
ACHN renal = system: ACHN renal
DMS 273 small cell lung = system: DMS 273 small cell lung
KM20L2 colon = system: KM20L2 colon
SK-MEL-2 melanoma = system: SK-MEL-2 melanoma
A549 NSCLC = system: A549 NSCLC
OVCAR-3 ovarian = system: OVCAR-3 ovarian
SNB-78 CNS = system: SNB-78 CNS
HL-60(TB) leukemia = system: HL-60(TB) leukemia
HCC-2998 colon = system: HCC-2998 colon
OVCAR-5 ovarian = system: OVCAR-5 ovarian
HOP-62 NSCLC = system: HOP-62 NSCLC
HCT-116 colon = system: HCT-116 colon
DLD-1 colon = system: DLD-1 colon
NCI-H23 lung = system: NCI-H23 lung
CCRF-CEM leukemia = system: CCRF-CEM leukemia
DMS 114 small cell lung = system: DMS 114 small cell lung
EKVX NSCLC = system: EKVX NSCLC
KM12 colon = system: KM12 colon
TK-10 renal = system: TK-10 renal
SK-MEL-28 melanoma = system: SK-MEL-28 melanoma
UACC-62 melanoma = system: UACC-62 melanoma
MALME-3M melanoma = system: MALME-3M melanoma
SF-539 CNS = system: SF-539 CNS
LXFL 529 NSCLC = system: LXFL 529 NSCLC
OVCAR-4 ovarian = system: OVCAR-4 ovarian
SR leukemia = system: SR leukemia
HOP-18 NSCLC = system: HOP-18 NSCLC
SNB-19 CNS = system: SNB-19 CNS
M19-MEL melanoma = system: M19-MEL melanoma
SN12C renal = system: SN12C renal
CAKI-1 renal = system: CAKI-1 renal
A498 renal = system: A498 renal
HCT-15 colon = system: HCT-15 colon

Q: `C/C(CC(=O)Nc1ccc(C)c(C)c1)=N\NC(N)=S` was tested. Which TGI (RXF 393 renal) did it give?
A: > 100 µM

Q: And the TGI (RXF-631 renal)?
A: > 100 µM

Q: And the TGI (SF-268 CNS)?
A: > 100 µM

Q: And the TGI (LOX IMVI melanoma)?
A: > 100 µM

Q: And the TGI (UO-31 renal)?
A: > 100 µM

Q: What about the TGI (UACC-257 melanoma) of the same compound?
A: > 100 µM

Q: And the TGI (U251 CNS)?
A: > 100 µM

Q: And the TGI (K-562 leukemia)?
A: > 100 µM

Q: And the TGI (NCI-H226 lung)?
A: > 100 µM

Q: What about the TGI (COLO 205 colon) of the same compound?
A: > 100 µM

Q: And the TGI (IGROV1 ovarian)?
A: > 100 µM

Q: What about the TGI (SW-620 colon) of the same compound?
A: > 100 µM

Q: What about the TGI (786-0 renal) of the same compound?
A: > 100 µM

Q: What about the TGI (SK-OV-3 ovarian) of the same compound?
A: > 100 µM

Q: And the TGI (SK-MEL-5 melanoma)?
A: > 100 µM

Q: What about the TGI (MOLT-4 leukemia) of the same compound?
A: > 100 µM

Q: What about the TGI (SF-295 CNS) of the same compound?
A: > 100 µM

Q: What about the TGI (HOP-92 NSCLC) of the same compound?
A: > 100 µM

Q: What about the TGI (M14 melanoma) of the same compound?
A: > 100 µM

Q: What about the TGI (RPMI-8226 leukemia) of the same compound?
A: > 100 µM

Q: What about the TGI (SNB-75 CNS) of the same compound?
A: > 100 µM

Q: And the TGI (NCI-H522 lung)?
A: > 100 µM

Q: What about the TGI (NCI-H460 lung) of the same compound?
A: > 100 µM

Q: And the TGI (HT29 colon)?
A: > 100 µM

Q: What about the TGI (OVCAR-8 ovarian) of the same compound?
A: > 100 µM

Q: And the TGI (ACHN renal)?
A: > 100 µM

Q: What about the TGI (DMS 273 small cell lung) of the same compound?
A: > 100 µM

Q: What about the TGI (KM20L2 colon) of the same compound?
A: > 100 µM

Q: What about the TGI (SK-MEL-2 melanoma) of the same compound?
A: > 100 µM

Q: And the TGI (A549 NSCLC)?
A: > 100 µM

Q: And the TGI (OVCAR-3 ovarian)?
A: > 100 µM

Q: What about the TGI (SNB-78 CNS) of the same compound?
A: > 100 µM

Q: What about the TGI (HL-60(TB) leukemia) of the same compound?
A: > 100 µM

Q: And the TGI (HCC-2998 colon)?
A: > 100 µM

Q: And the TGI (OVCAR-5 ovarian)?
A: > 100 µM

Q: What about the TGI (HOP-62 NSCLC) of the same compound?
A: > 100 µM

Q: What about the TGI (HCT-116 colon) of the same compound?
A: > 100 µM

Q: What about the TGI (DLD-1 colon) of the same compound?
A: > 100 µM

Q: And the TGI (NCI-H23 lung)?
A: > 100 µM

Q: And the TGI (CCRF-CEM leukemia)?
A: > 100 µM

Q: What about the TGI (DMS 114 small cell lung) of the same compound?
A: > 100 µM

Q: And the TGI (EKVX NSCLC)?
A: > 100 µM

Q: What about the TGI (KM12 colon) of the same compound?
A: > 100 µM

Q: And the TGI (TK-10 renal)?
A: > 100 µM

Q: And the TGI (SK-MEL-28 melanoma)?
A: > 100 µM

Q: And the TGI (UACC-62 melanoma)?
A: > 100 µM

Q: What about the TGI (MALME-3M melanoma) of the same compound?
A: > 100 µM

Q: And the TGI (SF-539 CNS)?
A: > 100 µM

Q: And the TGI (LXFL 529 NSCLC)?
A: > 100 µM

Q: What does the source list for `O=C1C(c2ccccc2)=[N+]([O-])c2cc([N+](=O)[O-])c(/C(Cl)=C/c3ccccc3)cc21`?
A: TGI (RXF 393 renal): 51.6 µM; TGI (RXF-631 renal): 21.4 µM; TGI (SF-268 CNS): > 100 µM; TGI (LOX IMVI melanoma): 26.6 µM; TGI (UO-31 renal): > 100 µM; TGI (U251 CNS): 39.7 µM; TGI (K-562 leukemia): 37.7 µM; TGI (NCI-H226 lung): > 100 µM; TGI (COLO 205 colon): 31 µM; TGI (IGROV1 ovarian): 57.5 µM; TGI (SW-620 colon): 31.1 µM; TGI (OVCAR-4 ovarian): 30.7 µM; TGI (786-0 renal): 82.9 µM; TGI (SK-OV-3 ovarian): > 100 µM; TGI (SK-MEL-5 melanoma): 44.4 µM; TGI (MOLT-4 leukemia): 49.2 µM; TGI (SF-295 CNS): > 100 µM; TGI (SR leukemia): 53 µM; TGI (M14 melanoma): 40.9 µM; TGI (RPMI-8226 leukemia): 42.5 µM; TGI (SNB-75 CNS): 62.8 µM; TGI (HT29 colon): 58.2 µM; TGI (OVCAR-8 ovarian): 34.2 µM; TGI (ACHN renal): 94.4 µM; TGI (DMS 273 small cell lung): 37.2 µM; TGI (A549 NSCLC): > 100 µM; TGI (OVCAR-3 ovarian): 27 µM; TGI (SNB-78 CNS): 96.9 µM; TGI (HL-60(TB) leukemia): 18.4 µM; TGI (OVCAR-5 ovarian): 59.1 µM; TGI (DLD-1 colon): 45 µM; TGI (HOP-18 NSCLC): 75.5 µM; TGI (NCI-H23 lung): 60.1 µM; TGI (CCRF-CEM leukemia): 40.3 µM; TGI (DMS 114 small cell lung): 22.9 µM; TGI (EKVX NSCLC): 78.9 µM; TGI (KM12 colon): 59.8 µM; TGI (TK-10 renal): 82.3 µM; TGI (SNB-19 CNS): > 100 µM; TGI (SK-MEL-28 melanoma): 61 µM; TGI (UACC-62 melanoma): 83.4 µM; TGI (M19-MEL melanoma): 28.9 µM; TGI (SF-539 CNS): 54.8 µM

Q: For `O=C(NC1C2CC3CC(C2)CC1C3)c1ccncn1` (configuration not stated), which TGI (RXF-631 renal) is on record?
A: > 100 µM

Q: And the TGI (SN12C renal)?
A: > 100 µM

Q: What about the TGI (CAKI-1 renal) of the same compound?
A: > 100 µM

Q: And the TGI (SF-268 CNS)?
A: > 100 µM

Q: And the TGI (UO-31 renal)?
A: > 100 µM

Q: What about the TGI (UACC-257 melanoma) of the same compound?
A: > 100 µM

Q: And the TGI (U251 CNS)?
A: > 100 µM

Q: And the TGI (K-562 leukemia)?
A: > 100 µM

Q: And the TGI (NCI-H226 lung)?
A: > 100 µM

Q: What about the TGI (COLO 205 colon) of the same compound?
A: > 100 µM

Q: And the TGI (IGROV1 ovarian)?
A: > 100 µM

Q: And the TGI (SW-620 colon)?
A: > 100 µM

Q: What about the TGI (OVCAR-4 ovarian) of the same compound?
A: > 100 µM

Q: What about the TGI (A498 renal) of the same compound?
A: > 100 µM

Q: And the TGI (786-0 renal)?
A: > 100 µM

Q: What about the TGI (SK-MEL-5 melanoma) of the same compound?
A: > 100 µM

Q: And the TGI (SF-295 CNS)?
A: > 100 µM

Q: What about the TGI (HOP-92 NSCLC) of the same compound?
A: > 100 µM

Q: And the TGI (M14 melanoma)?
A: > 100 µM

Q: What about the TGI (SNB-75 CNS) of the same compound?
A: > 100 µM

Q: What about the TGI (NCI-H522 lung) of the same compound?
A: > 100 µM

Q: And the TGI (NCI-H460 lung)?
A: > 100 µM

Q: What about the TGI (HT29 colon) of the same compound?
A: > 100 µM

Q: And the TGI (OVCAR-8 ovarian)?
A: > 100 µM

Q: What about the TGI (ACHN renal) of the same compound?
A: > 100 µM

Q: What about the TGI (DMS 273 small cell lung) of the same compound?
A: > 100 µM

Q: And the TGI (KM20L2 colon)?
A: > 100 µM

Q: And the TGI (SK-MEL-2 melanoma)?
A: > 100 µM

Q: And the TGI (A549 NSCLC)?
A: > 100 µM

Q: What about the TGI (OVCAR-3 ovarian) of the same compound?
A: > 100 µM

Q: What about the TGI (SNB-78 CNS) of the same compound?
A: > 100 µM

Q: And the TGI (HL-60(TB) leukemia)?
A: > 100 µM

Q: What about the TGI (HCC-2998 colon) of the same compound?
A: > 100 µM

Q: And the TGI (OVCAR-5 ovarian)?
A: > 100 µM

Q: And the TGI (HOP-62 NSCLC)?
A: > 100 µM

Q: And the TGI (HCT-116 colon)?
A: > 100 µM

Q: What about the TGI (DLD-1 colon) of the same compound?
A: > 100 µM

Q: What about the TGI (NCI-H23 lung) of the same compound?
A: > 100 µM

Q: And the TGI (CCRF-CEM leukemia)?
A: > 100 µM

Q: And the TGI (DMS 114 small cell lung)?
A: > 100 µM

Q: And the TGI (EKVX NSCLC)?
A: > 100 µM

Q: What about the TGI (KM12 colon) of the same compound?
A: > 100 µM

Q: And the TGI (SNB-19 CNS)?
A: > 100 µM

Q: And the TGI (SK-MEL-28 melanoma)?
A: > 100 µM

Q: What about the TGI (HCT-15 colon) of the same compound?
A: > 100 µM

Q: What about the TGI (UACC-62 melanoma) of the same compound?
A: > 100 µM

Q: What about the TGI (M19-MEL melanoma) of the same compound?
A: > 100 µM

Q: And the TGI (MALME-3M melanoma)?
A: > 100 µM

Q: And the TGI (SF-539 CNS)?
A: > 100 µM

Q: What about the TGI (LXFL 529 NSCLC) of the same compound?
A: > 100 µM
